Patent US20240317744A1, “Bicyclic Ureas As Kinase Inhibitors” (Incyte Corporation, priority 2023, published 2024)

Tests used:
[1] = biological target: T1, catalytic domain (JH1, amino acids 826-1132) of human JAK2 (Homo sapiens, UniProt O60674); test: JAK2 LanthaScreen JH1 Binding Assay; conditions: JAK2 JH1 1.5 nM, 50 nM tracer, 2 hours at 25° C.; read-out: JH1 BIND
T1 construct: catalytic domain (JH1, amino acids 826-1132) of human JAK2; FLAG (N); biotin (biotinylated); purchased Carna Biosciences 08-445-20N; host or cells: baculovirus expression system
Summary of the method: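 TR-FRET tracer-displacement format: compound IC50 from four-parameter curves after 2 h at 25° C. Reaction held 1.5 nM biotinylated, FLAG-tagged JH1 (aa 826-1132), 50 nM tracer, 0.5 nM Streptavidin-Tb, pH 7.5 Tris buffer; 2 mM ATP set nonspecific background.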

[2] = biological target: T2, pseudo-kinase domain (JH2, amino-acids 536-812) of human Wild Type JAK2 (Homo sapiens, UniProt O60674, F794H/W659A/W777A); test: JAK2 LanthaScreen JH2-WT Binding Assay; conditions: JAK2 JH2-WT 0.145 nM, 50 nM tracer, 1 hour at 25° C.; read-out: JH2 BIND WT
T2 construct: pseudo-kinase domain (JH2, amino-acids 536-812 with 3 surface mutations W659A, W777A, F794H); His (C); purchased BPS Bioscience 79463; host or cells: baculovirus expression system
Summary of the method: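 TR-FRET tracer displacement: 0.145 nM biotinylated JH2 protein, 50 nM fluorescent tracer, 0.25 nM streptavidin-Tb, compound dilution series; 50 mM Tris pH 7.5, 10 mM MgCl2, 5 mM DTT; 1 h, 25° C. Non-specific binding with 2 mM ATP. IC50 by 4-parameter fit.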

[3] = biological target: T3, pseudo-kinase domain (JH2, amino-acids 536-812) of human V617F mutant JAK2 (Homo sapiens, UniProt O60674, F794H/V617F/W659A/W777A); test: JAK2 LanthaScreen JH2-V617F Binding Assay; conditions: JAK2 JH2-V617F 0.26 nM, 50 nM tracer, 1 hour at 25° C.; read-out: JH2 BIND V617F
T3 construct: pseudo-kinase domain (JH2, amino-acids 536-812 with 3 surface mutations W659A, W777A, F794H); His (C); purchased BPS Bioscience 79498; host or cells: baculovirus expression system
Summary of the method: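 Binding was measured as TR-FRET displacement of 50 nM tracer from 0.26 nM biotinylated His-Avi protein, incubated one hour at 25° C; IC50 from a four-parameter fit.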

[4] = biological target: catalytic domain (JH1, amino acids 808-1132) of human JAK2 (Homo sapiens, UniProt O60674); test: JAK2 HTRF Enzyme Activity Assay; type: biochemical; conditions: ATP 30 µM, 60 minutes at 25° C.; read-out: V617F ENZ 30 UM
Sequence of catalytic domain (JH1, amino acids 808-1132) of human JAK2 (O60674 808-1132 limits assumed): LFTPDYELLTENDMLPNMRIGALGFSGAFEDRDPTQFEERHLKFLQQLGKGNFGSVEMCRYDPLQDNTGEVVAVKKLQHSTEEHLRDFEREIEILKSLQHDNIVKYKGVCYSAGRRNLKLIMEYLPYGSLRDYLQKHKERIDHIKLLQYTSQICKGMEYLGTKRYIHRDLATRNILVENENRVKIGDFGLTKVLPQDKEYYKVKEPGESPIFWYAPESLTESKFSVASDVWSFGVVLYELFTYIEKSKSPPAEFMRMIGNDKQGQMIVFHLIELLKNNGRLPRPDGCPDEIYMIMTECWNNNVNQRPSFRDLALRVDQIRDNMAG

T3 sequence (O60674 536-812 V617F/W659A/W777A/F794H): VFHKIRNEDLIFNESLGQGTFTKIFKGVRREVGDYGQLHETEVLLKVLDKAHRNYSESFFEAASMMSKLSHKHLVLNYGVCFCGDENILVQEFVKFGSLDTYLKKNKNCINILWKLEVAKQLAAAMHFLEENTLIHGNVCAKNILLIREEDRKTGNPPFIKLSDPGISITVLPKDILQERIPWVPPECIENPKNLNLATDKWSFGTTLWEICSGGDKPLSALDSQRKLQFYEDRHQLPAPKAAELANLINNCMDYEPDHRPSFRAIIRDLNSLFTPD
T1 sequence (O60674 826-1132): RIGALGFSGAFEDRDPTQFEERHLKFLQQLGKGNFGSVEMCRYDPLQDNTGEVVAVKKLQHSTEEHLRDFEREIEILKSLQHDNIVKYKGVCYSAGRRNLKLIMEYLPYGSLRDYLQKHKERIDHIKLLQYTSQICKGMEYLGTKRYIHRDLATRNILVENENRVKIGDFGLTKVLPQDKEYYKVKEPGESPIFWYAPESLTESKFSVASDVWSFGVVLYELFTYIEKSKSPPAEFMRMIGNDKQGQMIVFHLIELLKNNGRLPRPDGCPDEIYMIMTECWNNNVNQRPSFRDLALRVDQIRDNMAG
T2 sequence (O60674 536-812 W659A/W777A/F794H): as the sequence (O60674 536-812 V617F/W659A/W777A/F794H) above, with F82V counted along it

| SMILES | IC50 [1] | IC50 [2] | IC50 [3] | IC50 [4] |
| --- | --- | --- | --- | --- |
| COC(=O)N[C@@H]1CC[C@@H](n2c(=O)n(C)c3cnc(Nc4ccc5ncc(-c6cnn(C)c6)n5n4)cc32)C1 [Example 34, Methyl ((1R,3R)-3-(3-methyl-6-((3-(1-methyl-1H-pyrazol-4-yl)imidazo[1,2-b]pyridazin-6-yl)amino)-2-oxo-2,3-dihydro-1H-imidazo[4,5-c]pyridin-1-yl)cyclopentyl)carbamate] | > 1000 nM | ≤ 10 nM | ≤ 10 nM | > 1000 nM |
| [2H]C([2H])([2H])n1c(=O)n([C@@H]2CC[C@@H](NC(=O)OC)C2)c2cc(Nc3cc(C(=O)N4CCN5CCCCC5C4)cc(-c4ccc5c(c4)OCCO5)n3)ncc21 (stereo partly drawn) [Example 76, Methyl ((1R,3R)-3-(6-((6-(2,3-dihydrobenzo[b][1,4]dioxin-6-yl)-4-(octahydro-2H-pyrido[1,2-a]pyrazine-2-carbonyl)pyridin-2-yl)amino)-3-(methyl-d3)-2-oxo-2,3-dihydro-1H-imidazo[4,5-c]pyridin-1-yl)cyclopentyl)carbamate] | > 1000 nM | ≤ 10 nM | ≤ 10 nM | > 1000 nM |
| COC(=O)Nc1cc(Nc2cc3c(cn2)n(C)c(=O)n3[C@H]2C[C@H](C#N)C2)cc(-c2cnn(C)c2)c1 [Example 28, Methyl (3-((1-((1r,3r)-3-cyanocyclobutyl)-3-methyl-2-oxo-2,3-dihydro-1H-imidazo[4,5-c]pyridin-6-yl)amino)-5-(1-methyl-1H-pyrazol-4-yl)phenyl)carbamate] | > 1000 nM | 10 to 100 nM | 100 to 500 nM | > 1000 nM |
| [2H]C([2H])([2H])n1c(=O)n([C@@H]2CC[C@@H](NC(=O)OC)C2)c2cc(Nc3ccc4cccc(C5(C)CC5)c4n3)ncc21 [Example 58, Methyl ((1R,3R)-3-(3-(methyl-d3)-6-((8-(1-methylcyclopropyl)quinolin-2-yl)amino)-2-oxo-2,3-dihydro-1H-imidazo[4,5-c]pyridin-1-yl)cyclopentyl)carbamate] | > 1000 nM | ≤ 10 nM | ≤ 10 nM | > 1000 nM |
| [2H]C([2H])([2H])n1c(=O)n([C@@H]2CC[C@@H](NC(=O)OC)C2)c2cc(Nc3cc(C(=O)N4CCOC5CC54)c4cccc(C(F)(F)F)c4n3)ncc21 (stereo partly drawn) [Example 13, Methyl ((1R,3R)-3-(6-((4-(2-oxa-5-azabicyclo[4.1.0]heptane-5-carbonyl)-8-(trifluoromethyl)quinolin-2-yl)amino)-3-(methyl-d3)-2-oxo-2,3-dihydro-1H-imidazo[4,5-c]pyridin-1-yl)cyclopentyl)carbamate] | 500 to 1000 nM | ≤ 10 nM | ≤ 10 nM | 500 to 1000 nM |
| [2H]C([2H])([2H])n1c(=O)n([C@@H]2CC[C@@H](NC(=O)OC)C2)c2cc(Nc3cc(C(=O)N4CCOCC4)c4cccc(C(F)(F)F)c4n3)ncc21 [Example 52, Methyl ((1R,3R)-3-(3-(methyl-d3)-6-((4-(morpholine-4-carbonyl)-8-(trifluoromethyl)quinolin-2-yl)amino)-2-oxo-2,3-dihydro-1H-imidazo[4,5-c]pyridin-1-yl)cyclopentyl)carbamate] | 500 to 1000 nM | ≤ 10 nM | ≤ 10 nM | 500 to 1000 nM |
